Reference: paper PMC7672604, “Design, Synthesis, Molecular Docking, Antiapoptotic and Caspase-3 Inhibition of New 1,2,3-Triazole/Bis-2(1H)-Quinolinone Hybrids” (Molecules, 2020)
Where “and” joins values, the source holds several entries; their conditions need not be identical. Identical values can stand only once.

Columns and labels:
[1] = test system: testis of I/R rats; assay: Testicular testosterone in testis of I/R rats (ELISA); type: in vivo; parameters: unit not given here; details: i.p. 1 h before ischemia, dose equivalent to 30 mg NAC, mean ± S.E.M, n=6
Method: (§1) This section describes the methods used in the investigation of the antiapoptotic effect of the novel compounds 6a–g then supported by further histological and molecular docking studies. The antiapoptotic effect of 6a–g was evaluated through evaluation of decreasing tissue damage induced by I/R in the testis of rats in a dose equivalent to 30 mg N-acetylcysteine (NAC) as an antiapoptotic reference. The rats were subdivided into sham, I/R, NAC and treated with tested compounds groups, each group comprises of 6 rats (weighing 140–150 g). The targeted compounds 6a–g were administrated intra-peritoneal (i.p.) an hour before ischemia, which lasted for (0.5 h) then reperfusion (1 h) followed by cutting the organ (Figure 5). Different biomarkers concentrations were measured in serum to detect testis injury due to ischemia/reperfusion (I/R).
(§2) It was reported that excessive apoptosis in the testis could damage the Leydig cells and apparent decline in serum testosterone levels. Furthermore, excessive apoptosis of Leydig cells results in decreased testosterone. The assays of the apoptotic biomarkers (testicular testosterone and TNFα) were done in comparison with the sham and NAC treated group and the results were outlined in Table S4 (Supplementary Materials).
(§3) TNF-α was measured by ELISA kit (Elabscience, Houston, TX, USA). Caspase-3 was measured by ELISA kit Cusabio, Houston, TX, USA (See Supplementary Materials). Testosterone concentration in testicular samples was determined by the ELISA kit (“DRG”, Marburg, Germany) (See Supplementary Materials).
1.2.Determination of serum testosterone using ELISA kit
This ELISA kit uses the Competitive-ELISA principle. The micro ELISA plate provided in this kit has been pre-coated with T. During the reaction, T in the sample or standard competes with a fixed amount of T on the solid phase supporter for sites on the Biotinylated Detection Ab specific to T. Excess conjugate and unbound sample or standard are washed from the plate, and Avidin conjugated to Horseradish Peroxidase (HRP) are added to each microplate well and incubated. Then a TMB substrate solution is added to each well. The enzyme-substrate reaction is terminated by the addition of stop solution and the color change is measured spectrophotometrically at a wavelength of 450 nm ± 2 nm. The concentration of T in the samples is then determined by comparing the OD of the samples to the standard […]
Serum: Allow samples to clot for 2 hours at room temperature or overnight at 4℃ before centrifugation for 20 min at 1000×g at 2-8℃. Collect the supernatant to carry out the assay. Blood collection tubes should be disposable and be non-endotoxin. […]
1. Bring all reagents to room temperature (18~25℃) before use. Follow the Microplate reader manual for set-up and preheat it for 15 min before OD measurement.
2. Wash Buffer: Dilute 30 mL of Concentrated Wash Buffer with 720 mL of deionized or distilled water to prepare 750 mL of Wash Buffer. Note: if crystals have formed in the concentrate, warm it in a 40℃ water-bath and mix it gently until the crystals have completely dissolved.
3. Standard working solution: Centrifuge the standard at 10,000×g for 1min. Add 1.0mL of Reference Standard &Sample Diluent, let it stand for 10min and invert it gently several times. After it dissolves fully, mix it thoroughly with a pipette. This reconstitution produces a working solution of 20 ng/mL. Then make serial dilutions as needed. The recommended dilution gradient is as […]
Dilution method: Take 7 EP tubes, add 500uL of Reference Standard & Sample Diluent to each tube. Pipette 500uL of the 20 ng/mL working solution to the first tube and mix up to produce a 10 ng/mL working solution. Pipette 500uL of the solution from the former tube to the latter one according to this step. The illustration below is for reference. Note: the last tube is regarded as a blank. Don’t pipette solution into it from the former tube.

[2] = test system: testis of I/R rats; assay: Testicular MDA in testis of I/R rats; type: in vivo; details: i.p. 1 h before ischemia, dose equivalent to 30 mg NAC, mean ± S.E.M, n=6
Method: as §1
(§4) During the long testicular torsion, oxidation damage affects the testis by the production of the reactive oxygen species (ROS). Excessive generation of the ROS interacts with lipids, proteins, and nucleic acids, which has an adverse effect on cell function and damage. The testis has high cell metabolism such that excessive ROS production weakens antioxidant capacity. Malondialdehyde (MDA) is the end product of lipid peroxidation and increased MDA level has an adverse effect on sperm fertility. Furthermore, total antioxidant capacity (TAC) is the measure of the number of free radicals scavenged by a test solution, being used to evaluate the antioxidant capacity of biological samples [55]. The data collected in Table S3 (Supplementary Materials) have identified that there was a significant increase in testicular MDA with a significant decrease in testicular TAC in the I/R group as well as compounds 6d and 6f when compared to sham control and NAC groups. These findings indicate that both 6d and 6f are the worst antiapoptotic compounds compound amongst all the synthesized compounds.
TAC was assessed by the colorimetric technique using commercial kits (El-Minia, Egypt) (See Supplementary Materials). Testicular MDA, an index of lipid peroxidation, was determined by using 1,1,3,3-tetramethoxypropane as standard (See Supplementary Materials).

[3] = test system: caspase-3; assay: Caspase-3 level in serum of testicular I/R rats (ELISA); type: in vivo; details: mean ± S.E.M, n=6
Method: as §1
Caspases can delay apoptosis, implicating a potential role in drug screening efforts. Therefore, we studied the mechanism of the caspase-3 inhibition activity. Caspase-3 was assayed in the serum of rats treated with 6a–g in comparison with sham and the NAC treated group, as shown in Table S5 (Supplementary Materials).
as §3

[4] = test system: testis of I/R rats; assay: TNFα in testis of I/R rats (ELISA); type: in vivo; details: i.p. 1 h before ischemia, dose equivalent to 30 mg NAC, mean ± S.E.M, n=6
Method: as §1, §2, §3

[5] = test system: testis of I/R rats; assay: Testicular TAC in testis of I/R rats; type: in vivo; details: i.p. 1 h before ischemia, dose equivalent to 30 mg NAC, mean ± S.E.M, n=6
Method: as §1, §4
TAC was assessed by the colorimetric technique using commercial kits (El-Minia, Egypt) (See Supplementary Materials). Testicular MDA, an index of lipid peroxidation, was determined by using 1,1,3,3-tetramethoxypropane as standard (See Supplementary Materials). […]
1.3.Determination of Total Antioxidant Capacity (Testicular tissue)
Free radicals or reactive oxygen species (ROS) are produced during biochemical redox reactions as part
of normal physiological cell metabolism (protection from infectious organisms) and as a response to
environmental factors such as UV light, cigarette smoke, environmental pollutants, and g-radiation. Once
formed, ROS attack cellular components causing damage to lipids, proteins, and DNA which can initiate
Antioxidants in the sample reduce dark blue-green colored ABTS radical to colorless reduced ABTS
form. The change of absorbance at 660 nm is related with total antioxidant level of the sample. The assay
is calibrated with a stable antioxidant standard solution which is traditionally named as Trolox
Equivalent that is a vitamin E analog.
The determination of the antioxidative capacity is performed by the reaction of antioxidants in the
sample with a defined amount of exogenously provide hydrogen peroxide (H2O2) The antioxidants in the
sample eliminate a certain amount of the provided hydrogen peroxide. The residual H2O2 is determined
(1 picture or pasted object on this page, not shown here)
colorimetrically by an enzymatic reaction which involves the conversion of 3,5,dichloro–2–hydroxy
benzensulphonate to a colored product.
* Dilute R11000 times immediately before use (10 μl R1 + 10 ml d. Water mix Discard after use.
*Working Reagent: mix equal volumes of R2 and R3 immediately before use.
*Dilute sample if necessary
Total Antioxidant concentration […]

Row | melting point | Compound | Testicular testosterone [1] | Testicular MDA [2] | Caspase-3 level [3] | TNF-α [4] | Testicular TAC [5]
1 | 270 to 272 °C | Cc1ccc2[nH]c(=O)cc(OCc3cn(-c4cc(=O)[nH]c5ccc(C)cc45)nn3)c2c1 [6f, 6-Methyl-4-((1-(6-methyl-2-oxo-1,2-dihydroquinolin-4-yl)-1H-1,2,3-triazol-4-yl)meth-oxy)quinolin-2(1H)-one] | 1.83±0.14 | 117.00±3.46 nmol/g tissue | 16.34 ± 1.49 ng/mL | 237.90 ± 4.52 pg/mL | 1.73±0.25 mmol/g tissue
2 | 300 to 302 °C | COc1ccc2[nH]c(=O)cc(OCc3cn(-c4cc(=O)[nH]c5ccccc45)nn3)c2c1 [6g, 6-Methoxy-4-((1-(2-oxo-1,2-dihydroquinolin-4-yl)-1H-1,2,3-triazol-4-yl)methoxy)quinolin-2-(1H)-one] | 3.45±0.22 | 89.59±5.58 nmol/g tissue | 6.99 ± 0.24 ng/mL | 192.00 ± 6.31 pg/mL | 3.34±0.21 mmol/g tissue
3 |  | CC(=O)N[C@@H](CS)C(=O)O [NAC, N-acetylcysteine, reference compound] |  | 67.58 nmol/g tissue and 67.58±3.76 nmol/g tissue | 2.54 ± 0.22 ng/mL | 93.39 ± 4.59 pg/mL | 4.45 mmol/g tissue and 4.45±0.40 mmol/g tissue
4 | 272 to 274 °C | Cc1ccc2[nH]c(=O)cc(OCc3cn(-c4cc(=O)[nH]c5ccccc45)nn3)c2c1 [6e, 6-Methyl-4-((1-(2-oxo-1,2-dihydroquinolin-4-yl)-1H-1,2,3-triazol-4-yl)methoxy)quinolin-2(1H)-one] | 3.62±0.17 | 85.00±6.46 nmol/g tissue | 7.86 ± 0.28 ng/mL | 188.90 ± 6.82 pg/mL | 3.34±0.25 mmol/g tissue
5 | 295 to 297 °C | COc1ccc2[nH]c(=O)cc(-n3cc(COc4cc(=O)[nH]c5ccccc45)nn3)c2c1 [6c, 6-Methoxy-4-(4-(((2-oxo-1,2-dihydroquinolin-4-yl)oxy)methyl)-1H-1,2,3-triazol-1-yl)-quinolin-2(1H)-one] | 5.00±0.26 | 64.93±4.50 nmol/g tissue | 2.39 ± 0.23 ng/mL | 106.70 ± 4.75 pg/mL | 4.78±0.39 mmol/g tissue
6 | 285 to 287 °C | Cn1c(=O)cc(-n2cc(COc3cc(=O)[nH]c4ccccc34)nn2)c2ccccc21 [6d, 1-Methyl-4-(4-(((2-oxo-1,2-dihydroquinolin-4-yl)oxy)methyl)-1H-1,2,3-triazol-1-yl)quinolin-2(1H)-one] | 2.67±0.25 | 117.50 ± 3.71 nmol/g tissue | 15.28 ± 1.51 ng/mL | 234.50 ± 6.15 pg/mL | 1.89±0.29 mmol/g tissue
